# Measurements reported in ChEMBL document CHEMBL1157966, “Synthesis of salvinorin A analogues as opioid receptor probes” (J Nat Prod, 2006).
# Tests used:
# [1] = Selectivity ratio of Ki for mu opioid receptor to kappa opioid receptor
# [2] = biological target: Delta-type opioid receptor (Homo sapiens, UniProt P41143); experiment: Displacement of [125]OXY from delta opioid receptor
# Mu-type opioid receptor = Mu-type opioid receptor (Homo sapiens, UniProt P35372); experiment: Displacement of [125]OXY from mu opioid receptor
# [3] = Selectivity ratio of Ki for delta opioid receptor to kappa opioid receptor
# [4] = biological target: Kappa-type opioid receptor (Homo sapiens, UniProt P41145); experiment: Displacement of [125]OXY from kappa opioid receptor
# Sequence of Kappa-type opioid receptor (P41145 whole entry): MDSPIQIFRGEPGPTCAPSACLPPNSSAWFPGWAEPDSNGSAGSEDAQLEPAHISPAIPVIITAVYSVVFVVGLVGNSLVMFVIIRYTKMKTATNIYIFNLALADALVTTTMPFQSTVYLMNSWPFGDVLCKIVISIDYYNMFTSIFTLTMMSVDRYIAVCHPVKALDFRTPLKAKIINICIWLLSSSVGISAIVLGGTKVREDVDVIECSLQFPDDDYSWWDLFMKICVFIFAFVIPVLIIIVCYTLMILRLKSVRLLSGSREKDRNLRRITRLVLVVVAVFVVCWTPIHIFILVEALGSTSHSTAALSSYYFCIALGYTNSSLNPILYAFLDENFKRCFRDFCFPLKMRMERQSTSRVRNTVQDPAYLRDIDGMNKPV
# Sequence of Mu-type opioid receptor (P35372 whole entry): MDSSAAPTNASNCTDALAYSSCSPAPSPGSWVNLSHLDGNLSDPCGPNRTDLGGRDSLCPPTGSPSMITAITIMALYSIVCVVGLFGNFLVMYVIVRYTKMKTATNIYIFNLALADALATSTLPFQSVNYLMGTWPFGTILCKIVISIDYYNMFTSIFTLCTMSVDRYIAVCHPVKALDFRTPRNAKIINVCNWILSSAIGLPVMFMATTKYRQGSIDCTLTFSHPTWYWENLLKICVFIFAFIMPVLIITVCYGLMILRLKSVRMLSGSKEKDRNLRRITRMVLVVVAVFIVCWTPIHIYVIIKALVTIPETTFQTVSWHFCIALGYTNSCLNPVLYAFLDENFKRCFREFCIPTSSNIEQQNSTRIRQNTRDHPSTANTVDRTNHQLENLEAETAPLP
# Sequence of Delta-type opioid receptor (P41143 whole entry): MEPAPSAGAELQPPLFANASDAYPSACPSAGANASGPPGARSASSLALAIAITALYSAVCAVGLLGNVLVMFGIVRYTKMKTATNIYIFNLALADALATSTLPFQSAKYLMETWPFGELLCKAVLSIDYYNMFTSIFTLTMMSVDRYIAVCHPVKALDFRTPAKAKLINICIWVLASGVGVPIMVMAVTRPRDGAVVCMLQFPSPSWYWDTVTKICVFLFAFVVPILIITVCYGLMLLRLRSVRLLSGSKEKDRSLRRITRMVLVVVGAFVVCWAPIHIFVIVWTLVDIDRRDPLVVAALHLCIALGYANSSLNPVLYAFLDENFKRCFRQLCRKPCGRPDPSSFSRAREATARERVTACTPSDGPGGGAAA
Compound,Ratio Ki [1],Ki [2],Ki (Mu-type opioid receptor),Ratio Ki [3],Ki [4]
"COC(=O)[C@@H]1C[C@H](OC(=O)c2cccc(Br)c2)C(=O)[C@H]2[C@@]1(C)CCC1C(=O)O[C@H](c3ccoc3)C[C@@]12C (single isomer, unassigned)",1.6,> 10000 nM,110 nM,> 100,70 nM
COC(=O)[C@@H]1C[C@H](OC(=O)c2cccs2)C(=O)[C@H]2[C@@]1(C)CC[C@H]1C(=O)O[C@H](c3ccoc3)C[C@]21C,0.04,1380 nM,10 nM,5,260 nM
"CCCCCC(=O)O[C@H]1C[C@@H](C(=O)OC)[C@]2(C)CCC3C(=O)O[C@H](c4ccoc4)C[C@]3(C)[C@H]2C1=O (single isomer, unassigned)",7,4240 nM,520 nM,61,70 nM
COC(=O)[C@@H]1C[C@H](OC(=O)CCc2ccccc2)C(=O)[C@H]2[C@@]1(C)CC[C@H]1C(=O)O[C@H](c3ccoc3)C[C@]21C,2,9330 nM,280 nM,52,180 nM
"COC(=O)[C@@H]1C[C@H](OC(=O)c2ccc(Br)cc2)C(=O)[C@H]2[C@@]1(C)CCC1C(=O)O[C@H](c3ccoc3)C[C@@]12C (single isomer, unassigned)",0.01,1410 nM,10 nM,2,740 nM
"CCCC(=O)O[C@H]1C[C@@H](C(=O)OC)[C@]2(C)CCC3C(=O)O[C@H](c4ccoc4)C[C@]3(C)[C@H]2C1=O (single isomer, unassigned)",130,4030 nM,520 nM,1010,4 nM
CCC(=O)O[C@H]1C[C@@H](C(=O)OC)[C@]2(C)CC[C@H]3C(=O)O[C@H](c4ccoc4)C[C@]3(C)[C@H]2C1=O,> 560,,,2730,
"CCCCC(=O)O[C@H]1C[C@@H](C(=O)OC)[C@]2(C)CCC3C(=O)O[C@H](c4ccoc4)C[C@]3(C)[C@H]2C1=O (single isomer, unassigned)",21,3970 nM,310 nM,265,15 nM
"COC(=O)[C@@H]1C[C@H](OC(=O)c2ccccc2Br)C(=O)[C@H]2[C@@]1(C)CCC1C(=O)O[C@H](c3ccoc3)C[C@@]12C (single isomer, unassigned)",1.2,> 10000 nM,110 nM,> 100,90 nM
COC(=O)[C@@H]1C[C@H](OC(=O)c2ccccc2)C(=O)[C@H]2[C@@]1(C)CC[C@H]1C(=O)O[C@H](c3ccoc3)C[C@]21C,0.13,,,12,
"COC(=O)[C@@H]1C[C@H](OS(=O)(=O)c2ccccc2)C(=O)[C@H]2[C@@]1(C)CCC1C(=O)O[C@H](c3ccoc3)C[C@@]12C (single isomer, unassigned)",> 150,> 10000 nM,> 10000 nM,> 150,60 nM
"COC(=O)[C@@H]1C[C@H](OC(=O)Cc2ccccc2)C(=O)[C@H]2[C@@]1(C)CCC1C(=O)O[C@H](c3ccoc3)C[C@@]12C (single isomer, unassigned)",4,> 10000 nM,1090 nM,> 30,290 nM
"COC(=O)[C@@H]1C[C@H](OC(=O)CNC(=O)OC(C)(C)C)C(=O)[C@H]2[C@@]1(C)CCC1C(=O)O[C@H](c3ccoc3)C[C@@]12C (single isomer, unassigned)",63,> 10000 nM,5660 nM,> 100,90 nM
"COC(=O)[C@@H]1C[C@H](OS(=O)(=O)c2ccc(C)cc2)C(=O)[C@H]2[C@@]1(C)CCC1C(=O)O[C@H](c3ccoc3)C[C@@]12C (single isomer, unassigned)",4,3720 nM,220 nM,74,50 nM
